Source: US10294202B2, “Pyrrolidinones as herbicides” (FMC Corporation, priority 2013, dated 2019)

Assays:
[1] = test system: panicum, fall; experiment: Test E preemergence herbicide test; type: in vivo, Panicum dichotomiflorum; design: key: 0 = no effect, 100 = complete control
Excerpt: (§1) Seeds of plant species selected from corn (Zea mays), soybean (Glycine max), velvetleaf (Abutilon theophrasti), lambsquarters (Chenopodium album), wild poinsettia (Euphorbia heterophylla), pigweed, palmer (palmer pigweed, Amaranthus palmeri), waterhemp (common waterhemp, Amaranthus rudis), surinam grass (Brachiaria decumbens), crabgrass, large (large crabgrass, Digitaria sanguinalis), crabgrass, Brazil (Brazilian crabgrass, Digitaria horizontalis), panicum, fall (fall panicum, Panicum dichotomiflorum), foxtail, giant (giant foxtail, Setaria faberii), foxtail, green (green foxtail, Setaria viridis), goosegrass (Eleusine indica), johnsongrass (Sorghum halepense), ragweed (common ragweed, Ambrosia elatior), barnyardgrass (Echinochloa crus-galli), sandbur (southern sandbur, Cenchrus echinatus), arrowleaf […] rhombifolia), ryegrass, Italian (Italian ryegrass, Lolium multiflorum), dayflower, VA (Virginia dayflower, Commelina virginica), field bindweed (Convolvulus arvensis), morningglory (Ipomoea coccinea), nightshade (eastern black nightshade, Solanum ptycanthum), kochia (Kochia scoparia), nutsedge, yellow (yellow nutsedge, Cyperus esculentus), cocklebur (common cocklebur, Xanthium strumarium), smartweed (ladysthumb smartweed, Polygonum Persicaria) and beggarticks (hairy beggarticks, Bidens pilosa), were planted into a silt loam soil and treated preemergence with test chemicals formulated in a non-phytotoxic solvent mixture which included a surfactant. Treated plants and controls were maintained in a greenhouse for 21 days, after which time all species were compared to controls and visually evaluated. Plant response ratings, summarized in Table E, are based on a scale of 0 to 100 where 0 is no effect and 100 is complete control. A dash (-) response means no test result.

[2] = test system: nutsedge, yellow; experiment: Test E preemergence herbicide test; type: in vivo, Cyperus esculentus; design: key: 0 = no effect, 100 = complete control
Excerpt: as §1

[3] = test system: chamomile; experiment: Test D pre-/postemergence herbicide test; type: in vivo, Matricaria inodora; settings: for Plant response rating: Chamomile, scale 0 to 100; for Plant response rating, Chamomile: scale 0 to 100 (0 no effect, 100 complete control)
Excerpt: (§2) Seeds of plant species selected from bluegrass (annual bluegrass, Poa annua), blackgrass (Alopecurus myosuroides), canarygrass (littleseed canarygrass, Phalaris minor), chickweed (common chickweed, Stellaria media), galium (catchweed bedstraw, Galium aparine), bromegrass, downy (downy bromegrass, Bromus tectorum), field poppy (Papaver rhoeas), field violet (Viola arvensis), foxtail, green (green foxtail, Setaria viridis), deadnettle (henbit deadnettle, Lamium amplexicaule), ryegrass, Italian (Italian ryegrass, Lolium multiflorum), kochia (Kochia scoparia), lambsquarters (Chenopodium album), oilseed rape (Brassica napus), pigweed (Amaranthus retroflexus), chamomile (scentless chamomile, Matricaria inodora), Russian thistle (Salsola kali), speedwell (bird's-eye speedwell, Veronica persica), barley, spring (spring barley, Hordeum vulgare), wheat, spring (spring wheat, Triticum aestivum), buckwheat, wild (wild buckwheat, Polygonum convolvulus), mustard, wild (wild mustard, Sinapis arvensis), oat, wild (wild oat, Avena fatua), radish, wild (wild radish, Raphanus raphanistrum), […]), barley, winter (winter barley, Hordeum vulgare), and wheat, winter (winter wheat, Triticum aestivum) were planted into a silt loam soil and treated preemergence with test chemicals formulated in a non-phytotoxic solvent mixture which included a surfactant. At the same time, these species were planted in pots containing Redi-Earth® planting medium (Scotts Company, 14111 Scottslawn Road, Marysville, Ohio 43041) comprising spaghnum peat moss, vermiculite, wetting agent and starter nutrients and treated with postemergence applications of the test chemicals formulated in the same manner. Plants ranged in height from 2 to 18 cm (1- to 4-leaf stage). Treated plants and controls were maintained in a controlled growth environment for 7 to 21 days after which time all species were compared to controls and visually evaluated. Plant response ratings, summarized in Table D, are based on a scale of 0 to 100 where 0 is no effect and 100 is complete control. A dash (-) response means no test result.

[4] = test system: mustard, wild; experiment: Test D pre-/postemergence herbicide test; type: in vivo, Sinapis arvensis; settings: for Plant response rating: Mustard, Wild, scale 0 to 100; for Plant response rating, Mustard, Wild: scale 0 to 100 (0 no effect, 100 complete control)
Excerpt: as §2

[5] = test system: surinam grass; experiment: Test C pre-/postemergence herbicide test; type: in vivo, Brachiaria decumbens
Excerpt: Seeds of plant species selected from blackgrass (Alopecurus myosuroides), ryegrass, Italian (Italian ryegrass, Lolium multiflorum), wheat (winter wheat, Triticum aestivum), galium (catchweed bedstraw, Galium aparine), corn (Zea mays), crabgrass, large (large crabgrass, Digitaria sanguinalis), foxtail, giant (giant foxtail, Setaria faberii), johnsongrass (Sorghum halepense), lambsquarters (Chenopodium album), morningglory (Ipomoea coccinea), nutsedge, yellow (yellow nutsedge, Cyperus esculentus), pigweed (Amaranthus retroflexus), ragweed (common ragweed, Ambrosia elatior), soybean (Glycine max), barnyardgrass (Echinochloa crus-galli), oilseed rape (Brassica napus), waterhemp (common waterhemp, Amaranthus rudis), kochia (Kochia scoparia), oat, wild (wild oat, Avena fatua), surinam grass (Brachiaria decumbens), foxtail, green (green foxtail, Setaria viridis), goosegrass (Eleusine indica), bromegrass, downy (downy bromegrass, Bromus tectorum), nightshade (eastern black nightshade, Solanum ptycanthum), cocklebur (common cocklebur, Xanthium strumarium), cupgrass, woolly (woolly cupgrass, Eriochloa villosa), bermudagrass (Cynodon dactylon), sunflower, (common oilseed sunflower, Helianthus annuus), Russian thistle (Salsola kali) and velvetleaf (Abutilon theophrasti) were planted into a blend of loam soil and sand and treated preemergence with test chemicals formulated in a non-phytotoxic solvent mixture which included a surfactant. At the same time, plants selected from these crop and weed species and also barley (winter barley, Hordeum vulgare), […]), chickweed (common chickweed, Stellaria media), deadnettle (henbit deadnettle, Lamium amplexicaule), and canarygrass (littleseed canarygrass, Phalaris minor) were planted in pots containing Redi-Earth® planting medium (Scotts Company, 14111 Scottslawn Road, Marysville, Ohio 43041) comprising spaghnum peat moss, vermiculite, wetting agent and starter nutrients and treated with postemergence applications of test chemicals formulated in the same manner. Plants ranged in height from 2 to 18 cm (1- to 4-leaf stage) for postemergence treatments. Treated plants and controls were maintained in a greenhouse for 13 to 15 days, after which time all species were compared to controls and visually evaluated. Plant response ratings, summarized in Table C, are based on a scale of 0 to 100 where 0 is no effect and 100 is complete control. A dash (-) response means no test result.

[6] = test system: goosegrass; experiment: Test C pre-/postemergence herbicide test; type: in vivo, Eleusine indica
Summary of the method: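 Pre-emergence: seeds sown in loam/sand blend and treated with compound in surfactant-containing solvent. Post-emergence: plants at 2–18 cm (1- to 4-leaf stage) in peat-based medium sprayed with the same formulation. Visual rating versus controls after 13–15 days in greenhouse, scale 0 (no effect) to 100 (complete control).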

[7] = Postemergence, 31 g ai/ha, scale 0 (no effect) to 100 (complete control)
[8] = Postemergence, 62 g ai/ha, scale 0 to 100 (0 no effect, 100 complete control)
[9] = Postemergence, 250 g ai/ha, scale 0 to 100 (0 no effect, 100 complete control)
[10] = Preemergence, 62 g ai/ha, scale 0 to 100
[11] = Preemergence, 125 g ai/ha, scale 0 to 100 (0 no effect, 100 complete control)

O=C1NCC(c2ccc(OC(F)F)cc2)C1C(=O)Nc1cccc(F)c1F (racemic) [Compound 350]
0: Plant response rating, Panicum, Fall ([1]; 31 g ai/ha) | Plant response rating, Panicum, Fall ([1]; 62 g ai/ha) | Plant response rating, Panicum, Fall ([1]; 125 g ai/ha) | Plant response rating, Panicum, Fall ([1]; 250 g ai/ha) | Plant response rating, Nutsedge, Yellow ([2]; 31 g ai/ha) | Plant response rating, Nutsedge, Yellow ([2]; 62 g ai/ha) | Plant response rating, Nutsedge, Yellow ([2]; 125 g ai/ha)
15: Plant response rating, Nutsedge, Yellow ([2]; 250 g ai/ha)

O=C1NCC(c2ccc(Cl)c(F)c2)C1C(=O)Nc1cccc(F)c1F (stereo not shown) [Compound 52]
0: Plant response rating ([3]; Postemergence, 16 g ai/ha) | Plant response rating ([3]; Postemergence, 31 g ai/ha) | Plant response rating ([3]; Postemergence, 62 g ai/ha) | Plant response rating ([4]; Postemergence, 16 g ai/ha) | Plant response rating, Mustard, Wild ([4]; Preemergence, 62 g ai/ha) | Plant response rating, Mustard, Wild ([4]; Preemergence, 16 g ai/ha) | Plant response rating, Mustard, Wild ([4]; Preemergence, 31 g ai/ha) | Plant response rating ([4]; Preemergence, 125 g ai/ha) | Plant response rating, Surinam Grass [5, 7] | Plant response rating, Goosegrass [6, 7] | Plant response rating, Goosegrass [6, 8]
5: Plant response rating, Surinam Grass [5, 8]
60: Plant response rating, Goosegrass [6, 11]
35: Plant response rating, Surinam Grass [5, 10]
10: Plant response rating ([4]; Postemergence, 31 g ai/ha) | Plant response rating ([4]; Preemergence, 250 g ai/ha) | Goosegrass plant response rating ([6]; Preemergence, 31 g ai/ha, scale 0 to 100 (0 no effect, 100 complete control))
30: Plant response rating, Surinam Grass [5, 9]
25: Plant response rating ([4]; Postemergence, 250 g ai/ha)
75: Plant response rating, Chamomile ([3]; Preemergence, 62 g ai/ha) | Plant response rating ([3]; Preemergence, 125 g ai/ha)
20: Plant response rating ([3]; Postemergence, 125 g ai/ha) | Plant response rating ([3]; Postemergence, 250 g ai/ha) | Plant response rating, Chamomile ([3]; Preemergence, 16 g ai/ha) | Plant response rating, Chamomile ([3]; Preemergence, 31 g ai/ha) | Plant response rating ([4]; Postemergence, 62 g ai/ha) | Plant response rating ([4]; Postemergence, 125 g ai/ha) | Plant response rating, Goosegrass ([6]; Postemergence, 125 g ai/ha, scale 0 to 100 (0 no effect, 100 complete control)) | Plant response rating, Goosegrass [6, 9] | Plant response rating, Goosegrass [6, 10]
45: Plant response rating, Surinam Grass [5, 11]
80: Plant response rating ([3]; Preemergence, 250 g ai/ha)

O=C1NC[C@H](c2cccc(C(F)(F)F)c2)[C@H]1C(=O)Nc1ccccc1F [Compound 204, (3R,4S)—N-(2-fluorophenyl)-2-oxo-4-[3-(trifluoromethyl)phenyl]-3-pyrrolidinecarboxamide]
75: Plant response rating, Panicum, Fall ([1]; 125 g ai/ha) | Plant response rating, Panicum, Fall ([1]; 250 g ai/ha)
20: Plant response rating, Mustard, Wild ([4]; Preemergence, 62 g ai/ha) | Plant response rating, Mustard, Wild ([4]; Preemergence, 125 g ai/ha) | Plant response rating ([4]; Preemergence, 250 g ai/ha)
0: Plant response rating, Panicum, Fall ([1]; 31 g ai/ha) | Plant response rating, Panicum, Fall ([1]; 62 g ai/ha) | Plant response rating, Mustard, Wild ([4]; Preemergence, 31 g ai/ha) | Plant response rating, Nutsedge, Yellow ([2]; 31 g ai/ha) | Plant response rating, Nutsedge, Yellow ([2]; 62 g ai/ha) | Plant response rating, Nutsedge, Yellow ([2]; 125 g ai/ha) | Plant response rating, Nutsedge, Yellow ([2]; 250 g ai/ha)

O=C1NC[C@H](c2cccc(C(F)(F)F)c2)[C@H]1C(=O)Nc1cccc(F)c1F [Compound 206]
0: Plant response rating, Mustard, Wild ([4]; Preemergence, 62 g ai/ha) | Plant response rating, Mustard, Wild ([4]; Preemergence, 125 g ai/ha) | Plant response rating, Mustard, Wild ([4]; Preemergence, 31 g ai/ha)
20: Plant response rating, Nutsedge, Yellow ([2]; 125 g ai/ha)
98: Plant response rating, Panicum, Fall ([1]; 62 g ai/ha) | Plant response rating, Panicum, Fall ([1]; 125 g ai/ha) | Plant response rating, Panicum, Fall ([1]; 250 g ai/ha)
15: Plant response rating, Nutsedge, Yellow ([2]; 31 g ai/ha) | Plant response rating, Nutsedge, Yellow ([2]; 62 g ai/ha)
75: Plant response rating, Panicum, Fall ([1]; 31 g ai/ha) | Plant response rating ([4]; Preemergence, 250 g ai/ha) | Plant response rating, Nutsedge, Yellow ([2]; 250 g ai/ha)
